Assay results as given in ChEMBL document CHEMBL1201862, “PubChem BioAssay data set” (2004).
Active and inactive are the calls of the source.

What was measured:
[1] = biological target: T1, Probable nicotinate-nucleotide adenylyltransferase (Staphylococcus aureus (strain N315), UniProt P65502); assay type: functional, Staphylococcus aureus subsp. aureus N315;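 on IC50 Mean: confirmatory dose-response retesting of NadD inhibitor hits first found in an ultra-high-throughput screen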
[2] = biological target: T1, Probable nicotinate-nucleotide adenylyltransferase; assay type: functional, Staphylococcus aureus subsp. aureus N315; conditions: read-out: IC50_Mean
[3] = miR-122 activators in hepatoma reporter cells, dose response, cell-based, Huh7 psiCHECK-miR122, Renilla luciferase, cherry-picked (AID 651956); assay type: functional;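 further: huh7 hepatoma cells stably carrying a psiCHECK-2 miR-122 sensor plasmid; renilla luciferase signal reporting endogenous miR-122 activity after 48 h compound exposure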
[4] = HEK293T cytotoxicity, dose response, cytotoxicity control for miR-122 modulator project, cell-based, inhibitor set, cherry-pick, set 2 (AID 720697); assay type: functional
BJ [5] = assay: cytotoxicity toward BJ-TERT fibroblasts, dose response, cell-based, RAS-independent, luminescence (AID 1933); assay type: functional; conditions: Homo sapiens
Beta-galactosidase = Beta-galactosidase (Escherichia coli, UniProt Q8VNN2); assay: PubChem AID 485352; assay type: functional
BJ [6] = assay: cells; assay type: functional, cell-based; conditions: Homo sapiens
[7] = biological target: T2, Type-1 angiotensin II receptor (Homo sapiens, UniProt P30556); assay: AT1 receptor antagonists, dose response, selectivity assay for APJ receptor antagonist project, cell-based, uHTS hits (AID 463214); assay type: functional;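 further: antagonist potency against angiotensin II stimulated AT1 response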
T2 sequence (P30556 whole entry): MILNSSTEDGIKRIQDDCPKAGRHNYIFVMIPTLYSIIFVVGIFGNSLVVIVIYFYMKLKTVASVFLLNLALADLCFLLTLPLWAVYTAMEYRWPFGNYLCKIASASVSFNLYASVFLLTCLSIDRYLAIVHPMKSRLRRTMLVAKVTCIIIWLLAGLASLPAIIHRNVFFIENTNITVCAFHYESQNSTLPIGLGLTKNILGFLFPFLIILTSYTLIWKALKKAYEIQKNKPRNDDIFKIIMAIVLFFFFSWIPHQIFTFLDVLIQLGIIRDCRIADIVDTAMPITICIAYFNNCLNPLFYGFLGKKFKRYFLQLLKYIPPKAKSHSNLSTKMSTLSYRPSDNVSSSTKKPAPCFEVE

BJ [8] = assay: cytotoxicity toward BJ-TERT-LT-ST fibroblasts, dose response, cell-based, RAS-independent, luminescence (AID 1935); assay type: functional; conditions: Homo sapiens;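 further: BJ fibroblasts immortalized with TERT plus LT and ST oncogenes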
[9] = cytotoxicity toward DRD oncogenic fibroblasts, dose response, cell-based, non-viral oncogenic, luminescence (AID 1934); assay type: functional; conditions: Homo sapiens
[10] = Luminescence Cell-Based Dose Retest to Confirm Inhibitors of Cancer Stem Cells. [Related pubchem assays (depositor defined):AID2717, AID2721]; assay type: functional; conditions: Homo sapiens
Vero [11] = assay: cells; assay type: functional, cell-based; conditions: Chlorocebus sabaeus
BJ [12] = assay: cytotoxicity toward Ras-transformed BJeLR fibroblasts, dose response, cell-based, alamar blue fluorescence, cherrypicked samples (AID 2631); assay type: functional; conditions: Homo sapiens;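 further: confirmatory dose-response assay in RAS-dependent BJ fibroblasts engineered with TERT, LT and ST, with cytotoxicity read by fluorescence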
Vero [13] = assay: cells; assay type: functional; conditions: Chlorocebus sabaeus
[14] = Shn3 3'UTR reporter inhibitors, dose response, cell-based, Clone20 osteoblasts, firefly luciferase, cherry-picked (AID 624132); assay type: functional;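 further: firefly luciferase luminescence from reporter carrying the Shn3 3'UTR in osteoblasts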
[15] = HepG2 cell cytotoxicity, dose response, cytotoxicity control for Shn3 inhibitor project, CellTiter-Glo, cherry-picked (AID 624134); assay type: functional, cell-based
[16] = control 3'UTR Renilla luciferase suppression, dose response, counter-screen for Shn3 inhibitor project, cell-based, Clone20-Shn3RL, cherry-picked (AID 624133); assay type: functional
Paired box protein Pax-8 = Paired box protein Pax-8 (Homo sapiens, UniProt Q06710); assay: inhibitors of PAX8-driven TPO luciferase reporter, dose response, RMG-I cells, cherry-pick (AID 687027); assay type: functional, cell-based;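 further: luciferase reporter driven by Pax8 target thyroperoxidase promoter measured by SteadyGlo luminescence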
[17] = NIH:OVCAR-3 ovarian cancer cell cytotoxicity, dose response, PAX8 inhibitor project, plate reader, dry powder samples (AID 743044); assay type: functional, cell-based
[18] = IGROV1 ovarian cancer cell cytotoxicity, dose response, PAX8 inhibitor project, plate reader, dry powder samples (AID 743043); assay type: functional, cell-based; conditions: IGROV-1
[19] = cytotoxicity in OVCAR8 ovarian cancer cells, dose response, PAX8 project, cell-based, plate reader, dry powder samples (AID 743197); assay type: functional; conditions: OVCAR-8
[20] = biological target: T3, RNA-binding protein pos-1 (Caenorhabditis elegans, UniProt G5EF15); assay: inhibitors of POS-1/mex-3 RNA binding, dose response, biochemical, fluorescence polarization (AID 1964);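 further: purified POS-1 fused to maltose binding protein made in E. coli; potency of compounds blocking POS-1 binding to fluorescent RNA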
T3 sequence (G5EF15 whole entry): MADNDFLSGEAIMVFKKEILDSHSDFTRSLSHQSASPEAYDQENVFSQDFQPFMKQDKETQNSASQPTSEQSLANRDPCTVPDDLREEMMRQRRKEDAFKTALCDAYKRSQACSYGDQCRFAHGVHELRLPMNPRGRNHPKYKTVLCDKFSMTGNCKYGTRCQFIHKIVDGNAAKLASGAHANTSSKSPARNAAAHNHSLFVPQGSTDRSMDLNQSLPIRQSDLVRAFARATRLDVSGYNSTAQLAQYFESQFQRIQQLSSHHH

[21] = test system: Streptococcus sp. 'group A'; assay: growth inhibition of control SK(-) GAS strain, dose response, counter-screen for streptokinase expression inhibitor project, luminescence, kanamycin, BacTiterGlo, confirmation (AID 1900); assay type: functional, organism-based
[22] = biological target: T4, Zinc finger protein mex-5 (Caenorhabditis elegans, UniProt Q9XUB2); assay: MEX-5/TCR-2 RNA interaction inhibitors, dose response, biochemical, C. elegans, fluorescence polarization (AID 1960)
T4 sequence (Q9XUB2 whole entry): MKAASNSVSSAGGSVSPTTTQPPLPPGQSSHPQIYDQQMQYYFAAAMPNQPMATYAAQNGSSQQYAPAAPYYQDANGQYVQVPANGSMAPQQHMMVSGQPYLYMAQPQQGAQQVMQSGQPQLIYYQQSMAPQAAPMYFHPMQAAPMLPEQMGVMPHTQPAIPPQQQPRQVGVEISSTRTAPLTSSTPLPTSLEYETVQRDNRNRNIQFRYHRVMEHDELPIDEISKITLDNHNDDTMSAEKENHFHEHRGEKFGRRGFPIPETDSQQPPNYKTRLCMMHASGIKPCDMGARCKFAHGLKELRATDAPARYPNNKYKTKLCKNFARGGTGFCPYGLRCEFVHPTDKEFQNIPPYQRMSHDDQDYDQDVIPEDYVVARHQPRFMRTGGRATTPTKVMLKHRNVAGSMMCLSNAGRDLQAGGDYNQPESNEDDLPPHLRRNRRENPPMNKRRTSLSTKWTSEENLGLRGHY

Streptokinase A = biological target: T5, Streptokinase A (Streptococcus pyogenes serotype M1, UniProt P10520); assay: S. pyogenes streptokinase expression inhibitors, potency, dose response, plasminogen activation absorbance, OD405 (AID 1914); assay type: functional, Streptococcus pyogenes M1 GAS;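 further: secreted streptokinase activity via plasminogen activation per viability signal from cell pellet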
T5 sequence (P10520 whole entry): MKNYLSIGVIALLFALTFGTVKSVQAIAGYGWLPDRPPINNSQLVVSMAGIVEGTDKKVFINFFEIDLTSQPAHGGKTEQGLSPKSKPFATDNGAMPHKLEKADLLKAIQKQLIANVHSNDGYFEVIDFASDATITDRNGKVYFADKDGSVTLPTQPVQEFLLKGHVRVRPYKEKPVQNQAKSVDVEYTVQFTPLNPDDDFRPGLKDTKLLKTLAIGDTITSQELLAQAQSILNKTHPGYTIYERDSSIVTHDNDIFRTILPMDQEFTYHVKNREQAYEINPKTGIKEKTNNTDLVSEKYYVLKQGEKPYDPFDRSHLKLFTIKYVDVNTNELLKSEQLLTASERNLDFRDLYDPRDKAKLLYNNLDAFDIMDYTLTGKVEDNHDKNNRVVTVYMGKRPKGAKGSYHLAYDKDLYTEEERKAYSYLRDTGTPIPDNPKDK

Streptococcus = assay: Group A Streptococcus viability loss, dose response, counter-screen for streptokinase expression inhibitor project, luminescence, BacTiterGlo (AID 1915); assay type: functional, organism-based;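 further: potency for reduction of bacterial viability or growth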
[23] = biological target: T6, Rac GTPase-activating protein 1 (Homo sapiens, UniProt Q9H0H5); assay: MgcRacGAP GTPase-activating activity inhibitors, confirmation, biochemical, ADP Hunter fluorescence, primary and confirmatory (AID 624330); assay type: functional
T6 sequence (Q9H0H5 whole entry): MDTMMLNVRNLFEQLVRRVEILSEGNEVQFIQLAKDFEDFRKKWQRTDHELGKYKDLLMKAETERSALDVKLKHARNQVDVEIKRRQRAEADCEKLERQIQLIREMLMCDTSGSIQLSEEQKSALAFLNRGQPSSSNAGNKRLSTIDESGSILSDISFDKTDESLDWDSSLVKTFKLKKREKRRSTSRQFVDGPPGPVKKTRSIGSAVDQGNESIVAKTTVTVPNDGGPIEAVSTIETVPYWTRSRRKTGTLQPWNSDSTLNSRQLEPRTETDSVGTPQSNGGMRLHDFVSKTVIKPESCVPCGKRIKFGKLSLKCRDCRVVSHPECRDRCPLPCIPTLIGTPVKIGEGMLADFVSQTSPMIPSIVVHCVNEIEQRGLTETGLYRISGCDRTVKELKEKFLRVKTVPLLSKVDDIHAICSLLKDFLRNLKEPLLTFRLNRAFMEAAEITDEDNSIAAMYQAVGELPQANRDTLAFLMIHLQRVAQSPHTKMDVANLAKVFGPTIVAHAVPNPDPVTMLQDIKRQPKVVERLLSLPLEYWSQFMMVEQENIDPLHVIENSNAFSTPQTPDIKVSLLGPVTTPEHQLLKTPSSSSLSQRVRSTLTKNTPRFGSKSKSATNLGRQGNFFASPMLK

T1 sequence (P65502 whole entry): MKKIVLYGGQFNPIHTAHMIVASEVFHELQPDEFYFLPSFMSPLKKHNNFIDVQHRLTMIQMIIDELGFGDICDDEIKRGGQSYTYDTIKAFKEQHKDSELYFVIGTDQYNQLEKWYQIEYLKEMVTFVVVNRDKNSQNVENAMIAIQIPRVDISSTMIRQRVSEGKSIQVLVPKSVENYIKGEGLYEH
Sequence of Beta-galactosidase (Q8VNN2 whole entry): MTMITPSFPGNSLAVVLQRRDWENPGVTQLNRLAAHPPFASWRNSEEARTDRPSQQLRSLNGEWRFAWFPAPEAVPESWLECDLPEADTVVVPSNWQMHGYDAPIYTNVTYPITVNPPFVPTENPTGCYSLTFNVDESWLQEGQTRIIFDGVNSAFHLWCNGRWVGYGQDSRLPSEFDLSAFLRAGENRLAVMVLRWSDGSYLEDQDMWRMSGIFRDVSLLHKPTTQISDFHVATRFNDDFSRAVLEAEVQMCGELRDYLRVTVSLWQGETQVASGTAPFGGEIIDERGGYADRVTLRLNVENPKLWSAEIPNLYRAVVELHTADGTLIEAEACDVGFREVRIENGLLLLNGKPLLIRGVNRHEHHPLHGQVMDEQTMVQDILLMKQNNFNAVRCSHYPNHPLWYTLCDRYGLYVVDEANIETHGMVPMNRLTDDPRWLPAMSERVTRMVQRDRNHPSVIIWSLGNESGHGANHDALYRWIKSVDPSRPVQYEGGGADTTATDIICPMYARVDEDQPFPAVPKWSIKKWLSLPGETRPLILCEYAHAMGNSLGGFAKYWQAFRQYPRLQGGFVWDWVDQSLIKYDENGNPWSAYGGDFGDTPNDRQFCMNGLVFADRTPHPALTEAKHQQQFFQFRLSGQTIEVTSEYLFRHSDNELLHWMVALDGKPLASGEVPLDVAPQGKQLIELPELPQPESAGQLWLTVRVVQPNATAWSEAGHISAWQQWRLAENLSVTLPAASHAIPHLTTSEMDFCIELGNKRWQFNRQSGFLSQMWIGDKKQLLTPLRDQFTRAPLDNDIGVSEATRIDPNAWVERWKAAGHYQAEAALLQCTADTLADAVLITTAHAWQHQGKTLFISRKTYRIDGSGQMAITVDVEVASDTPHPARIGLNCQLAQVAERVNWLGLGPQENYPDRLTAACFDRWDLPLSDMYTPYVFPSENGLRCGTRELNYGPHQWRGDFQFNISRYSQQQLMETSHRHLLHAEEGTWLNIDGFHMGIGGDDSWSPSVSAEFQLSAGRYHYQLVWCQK
Sequence of Paired box protein Pax-8 (Q06710 whole entry): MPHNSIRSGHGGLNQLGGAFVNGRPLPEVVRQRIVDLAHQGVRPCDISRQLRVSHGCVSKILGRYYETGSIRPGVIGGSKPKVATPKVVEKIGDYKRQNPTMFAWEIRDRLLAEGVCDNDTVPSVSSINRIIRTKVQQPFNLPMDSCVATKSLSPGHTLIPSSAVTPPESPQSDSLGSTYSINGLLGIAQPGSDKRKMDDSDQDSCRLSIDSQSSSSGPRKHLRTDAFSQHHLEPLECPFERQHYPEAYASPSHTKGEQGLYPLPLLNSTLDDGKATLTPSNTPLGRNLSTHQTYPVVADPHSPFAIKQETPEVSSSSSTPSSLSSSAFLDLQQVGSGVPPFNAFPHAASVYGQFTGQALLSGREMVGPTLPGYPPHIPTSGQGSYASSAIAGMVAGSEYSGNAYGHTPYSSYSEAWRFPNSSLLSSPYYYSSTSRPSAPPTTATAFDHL

Question: Which IC50 [1] does the source give for `Cc1ccc(Cl)cc1N1CCN(S(=O)(=O)c2ccc3[nH]c(=O)c(=O)[nH]c3c2)CC1` here?
Answer: 7.01 µM (active)

Question: And the IC50 [2]?
Answer: 52.8 µM (active)

Question: For `COc1ccc(-c2ccc3c(c2)O[C@H](CN(C)C(=O)Nc2ccccc2F)[C@H](C)CN([C@@H](C)CO)S3(=O)=O)cc1`, which AC50 [3] is on record?
Answer: 9.32 µM (active)

Question: What about the AC50 [4] of the same compound?
Answer: 0.5 µM (active)

Question: For `CCN1C(=O)C(=Cc2cccc(OC)c2Oc2ccc([N+](=O)[O-])cc2[N+](=O)[O-])SC1=S`, which EC50 (BJ [5]) is on record?
Answer: 2.5 µM (inconclusive)

Question: And the EC50 (Beta-galactosidase)?
Answer: > 40 µM (inactive)

Question: What about the EC50 (BJ [6]) of the same compound?
Answer: 3.45 µM (inconclusive)

Question: What about the IC50 [7] of the same compound?
Answer: > 40 µM (not active)

Question: What about the EC50 (BJ [8]) of the same compound?
Answer: 3.5 µM (active)

Question: What about the EC50 [9] of the same compound?
Answer: 4.38 µM (active)

Question: What about the AC50 [10] of the same compound?
Answer: 0.853 µM (active)

Question: What about the IC50 (Vero [11]) of the same compound?
Answer: > 6.25 µM (active)

Question: What about the EC50 (BJ [12]) of the same compound?
Answer: 2.22 µM (active)

Question: And the CC50 (Vero [13])?
Answer: 3.96 µM (active)

Question: And the AC50 [14]?
Answer: 1.89 µM (active)

Question: And the AC50 [15]?
Answer: 5.77 µM (active)

Question: And the AC50 [16]?
Answer: 7.11 µM (active)

Question: With `C[C@@H]1CCCCO[C@@H](CN(C)C(=O)Nc2ccc(C(F)(F)F)cc2)[C@H](C)CN([C@H](C)CO)C(=O)c2cc(NS(=O)(=O)c3cccs3)ccc2O1` as the compound, how does the AC50 (Paired box protein Pax-8) read?
Answer: 8.64 µM (active)

Question: What about the AC50 [17] of the same compound?
Answer: 20 µM (active)

Question: And the AC50 [18]?
Answer: 45.5 µM (active)

Question: What about the AC50 [19] of the same compound?
Answer: 39.4 µM (active)

Question: With `Cc1cccc2sc(NNC(=O)c3cc(=O)c4ccccc4o3)nc12` as the compound, how does the EC50 [20] read?
Answer: > 300 µM (not active)

Question: What about the EC50 [21] of the same compound?
Answer: 0.449 µM (active)

Question: What about the EC50 [22] of the same compound?
Answer: > 300 µM (not active)

Question: What about the EC50 (Streptokinase A) of the same compound?
Answer: > 150 µM (not active)

Question: And the EC50 (Streptococcus)?
Answer: 7.43 µM (active)

Question: What about the IC50 [1] of the same compound?
Answer: 5.9 µM (active)

Question: And the IC50 [2]?
Answer: 35.2 µM (active)

Question: What about the IC50 [23] of the same compound?
Answer: 94 µM (active)
